Measurements reported in paper PMC12164071, “Lysine targeting covalent inhibitors of malarial kinase PfCLK3” (RSC Medicinal Chemistry, 2025).
Entries after “also recorded” stand apart in the source; their conditions may differ. Where two headings read alike, the source gives them in different places.

Legend:
recombinant PfCLK3 = recombinant PfCLK3 (Plasmodium falciparum, UniProt Q8IIL5); assay: TR-FRET kinase assay at Km ATP; type: biochemical; conditions: for IC50: 2 hour incubation, errors SD, N ≥ 3, * concentration response curve not complete; for kinase activity in words: Km ATP
Procedure: All compounds were then evaluated against recombinant PfCLK3 using a TR-FRET kinase assay (Fig. 5). […]
Time Resolved Förster Resonance Energy Transfer (TR-FRET) Assay
Tr-FRET technology was used to determine kinase activity and Km ATP before profiling compounds. An 11-point half-log serial dilution of each test compound was prepared in 100% DMSO at 100X final test concentration. The dilution series were dispensed onto assay plates with liquid handling machinery using positive displacement. The final DMSO concentration in the assay was 1%. To obtain IC 50 values, full length recombinant PfCLK3 was prepared in 1X assay buffer (50 mM Hepes, 10 mM MgCl2, 1 mM EGTA, 0.01% Tween20, 2 mM TCEP) at a 2X concentration and incubated with compounds for 15 minutes at room temperature before addition of ULight-labelled peptide substrate (MBP) with Km ATP (at 2X concentration). The reaction was centrifuged and incubated for 2 hr at 37 °C. To stop the reaction, 1X Lance detection buffer was added with 1 nM Eu-labelled anti-MBP and 10 mM EDTA, and the reaction was incubated in the dark for 2 hr at room temperature to allow detection to take place. Plate output was read on a Pherastar FSX and data analysed in Graphpad Prism to a 4-parameter curve fit. […]

[1] = Human cell viability assay (resazurin); conditions: HepG2, 48 hours, errors SD, N ≥ 3
Procedure: Cytotoxicity was assessed in HepG2 cells to complement the selectivity evaluations (Fig. 7). […]
Human cell viability assay.
Mycoplasma tested HepG2 cells were cultured in Dulbecco’s Modified Eagle Medium
(DMEM) with 10% fetal bovine serum, 1% non-essential AA, 1% sodium pyruvate, 1% Pen-
strep and 100ug/mL Normocin. Cultures were incubated at 37 ℃, 5% CO2. Cells were
detached using 0.05% trypsin-EDTA. 500nL of drug compound dilutions, in triplicate, were
added to 384-well, black, clear bottom assay plates using a Mosquito liquid handling
machine. Assay plates, containing compound dilutions, were seeded at 5,000 cells/well and
incubated for 48 hours. 40uM final concentration resazurin, diluted in DPBS, was added to
the assay plates which were then incubated for 4 hours and analysed using a ClariostarTM
plate reader to measure fluorescence Intensity (545-20nm/600-40nm). 3 control compounds
were included on every assay plate, Tamoxifen, Puromycin and TCMDC-135051. Maximum
signal control was obtained from wells with DMSO only and minimum signal control with
Tamoxifen 100uM. These were used to normalise data and give percentage inhibition of
metabolic activity. Experiments were performed N=3 and normalised data was grouped and a
nonlinear regression curve with four parameters was plotted using GraphPad Prism,
generating activity data. […]

human (h)CLK2 = human (h)CLK2 (Homo sapiens, UniProt P49760); assay: Selectivity kinase assay against hCLK2; type: biochemical; conditions: for IC50: errors SD, N ≥ 3
Text: Given this work aims to target a conserved residue, selectivity must be derived from the reversible ligand rather than the covalent interaction.

[2] = system: PfCLK3 kinase domain (amino acid residues 334–699); assay: Intact protein LC-MS for covalent adduct formation; type: binding, Plasmodium falciparum; conditions: for covalent adduct formation with PfCLK3 kinase domain: pH 7.4, 1:5 protein to compound ratio; for Relative Ratio, assignment holo (singly modified) / Relative Ratio, assignment apo: compound 4 with C-terminal His-tag construct
Procedure: All compounds were then evaluated for covalent binding with PfCLK3 kinase domain (amino acid residues 334–699) using intact protein LC-MS (Fig. 3). Compounds were incubated at pH 7.4 in a 1 : 5 protein to compound ratio and analysed for covalent adduct formation using ESI TOF. […] Compounds 8 and 9 yielded a fully modified species at 43 957 Da, which can be attributed to the mass of the apo protein + the mass of the pyridinium product adduct. A minor mass (20–25%) of 44 378 Da was also detected, consistent with a doubly modified PfCLK3 kinase domain. This implies that cross reactivity with non-catalytic lysine residues is possible using the ethynyl benzaldehyde functionality, although a minor product. […]
dialyzing the protein into a final buffer containing 20 mM HEPES pH 7.4, 150 mM NaCl, 1 […]
PfCLK3 kinase domain (residues 334–699 with a C-terminal TEV cleavage sequence and His6-tag) was cloned into pFastBac vector and expressed and purified from Sf21 insect cells.
Cells were infected using P2 BIICs at an MOI of 0.2 and left to express for 72 h. Harvested cells were lysed and centrifuged before purifying using IMAC and SEC in a final buffer containing 20 mM HEPES pH 7.4, 150 mM NaCl, 1 mM TCEP, and 1 mM MgCl2.
Protein Mass Spectrometry
For intact protein mass spectrometry, compounds were incubated with a 5-fold excess of compound in buffer containing 20 mM HEPES pH 7.4, 150 mM NaCl, 1 mM TCEP, and 1 mM MgCl 2. 5 μL of kinase domain (1 mg/mL) was added to 25 μL of buffer before 0.12 μL of compound in a 10 mM DMSO stock was added to start the incubation. Samples were incubated at room temperature for 4 hours before 10 μL alliquots were analysed by LC-MS.
Intact protein LC-MS experiments were performed on a Synapt G2 Q-ToF instrument equipped with electrospray ionisation (Waters Corp., Manchester, UK). LC separation was achieved using an Acquity UPLC equipped with a reverse phase C4 Aeris Widepore 50 × 2.1 mm HPLC column (Phenomenex, CA, USA) and a gradient of 5–95% acetonitrile (0.1% formic acid) over 10 minutes was employed. Data analysis was performed using MassLynx v4.1 and deconvolution was performed using MaxEnt. […]

[3] = system: 3D7 Plasmodium falciparum parasites; assay: Ex vivo P. falciparum (3D7) inhibition assay; type: cell-based
Procedure: Compounds 4, 5, 8 and 9 were then assessed against 3D7 Plasmodium falciparum parasites (Fig. 6). […]
P. falciparum (3D7) culture and synchronisation.
P. falciparum cultures were maintained in RPMI-1640 media (Invitrogen) supplemented with 0.2% sodium bicarbonate, 0.5% Albumax II, 2.0 mM L-glutamine (Sigma) and 10 mg/L gentamycin. For continuous culture, the parasites were maintained at 4% haematocrit in human erythrocytes from 0+ blood donors and between 0.5 - 3% parasitaemia in an incubator at 37 °C, 5% carbon dioxide (CO 2), 5% oxygen (O 2) and 90% nitrogen (N 2). To obtain highly synchronous ring stage parasites for assays, cultures were double synchronised using Percoll and Sorbitol synchronisation. First, highly segmented schizonts were enriched by centrifugation on a 70% Percoll (GE Healthcare) cushion gradient. The Schizont pellet was collected and washed twice before fresh erythrocytes were added to a final haematocrit of 4%, and incubated for about 1-2 hours shaking continuously to allow merozoites egress and re-invasion of new erythrocytes. Residual schizonts were then removed by a second Percoll purification followed by treating the ring pellet with sorbitol to generate highly synchronous 1-2 hours old ring-stage parasites.
Ex vivo P. Falciparum (3D7) inhibition assay.
To determine the IC 50 of the molecules in parasites (P. falciparum 3D7) ex vivo, the molecules were diluted 1 in 3 from a starting concentration of 100 μM for 12 dilution points in triplicate. 50 μL of freshly diluted drugs, at twice the required final concentrations were aliquoted into black 96-well plates. To the compound plates, 50 μL of parasites prepared at 8% haematocrit at a parasitaemia (0.3 - 0.5%) were added and mixed by pipetting up and down several times giving a final culture volume of 100 μL at the required compound concentration (top concentration of 100 μM) and 4% haematocrit. To the ‘no compound’ control, growth media was added and uninfected erythrocytes were included on the plate as blank. The outer wells were filled with media to reduce evaporation from the experimental wells and the plates incubated for 72 hours (±2 hours) to allow the parasites sufficient time to re-invade before they are collected and frozen. For cellular washout studies, compound media was exchanged for compound-free media after 6 hours, and the parasites incubated for a […]

[4] = pH 7.4, 1:5 protein to compound, 4 hours room temperature
[5] = 3D7, Pf3D7 parasites, 72 hours, errors SD, N ≥ 3, read-out: EC50 (3D7)
[6] = 3D7, Pf3D7 parasites, 72 hours, errors SD, N ≥ 3, read-out: pEC50 (3D7) (converted)

Chain of recombinant PfCLK3 (Q8IIL5 entry or part of it): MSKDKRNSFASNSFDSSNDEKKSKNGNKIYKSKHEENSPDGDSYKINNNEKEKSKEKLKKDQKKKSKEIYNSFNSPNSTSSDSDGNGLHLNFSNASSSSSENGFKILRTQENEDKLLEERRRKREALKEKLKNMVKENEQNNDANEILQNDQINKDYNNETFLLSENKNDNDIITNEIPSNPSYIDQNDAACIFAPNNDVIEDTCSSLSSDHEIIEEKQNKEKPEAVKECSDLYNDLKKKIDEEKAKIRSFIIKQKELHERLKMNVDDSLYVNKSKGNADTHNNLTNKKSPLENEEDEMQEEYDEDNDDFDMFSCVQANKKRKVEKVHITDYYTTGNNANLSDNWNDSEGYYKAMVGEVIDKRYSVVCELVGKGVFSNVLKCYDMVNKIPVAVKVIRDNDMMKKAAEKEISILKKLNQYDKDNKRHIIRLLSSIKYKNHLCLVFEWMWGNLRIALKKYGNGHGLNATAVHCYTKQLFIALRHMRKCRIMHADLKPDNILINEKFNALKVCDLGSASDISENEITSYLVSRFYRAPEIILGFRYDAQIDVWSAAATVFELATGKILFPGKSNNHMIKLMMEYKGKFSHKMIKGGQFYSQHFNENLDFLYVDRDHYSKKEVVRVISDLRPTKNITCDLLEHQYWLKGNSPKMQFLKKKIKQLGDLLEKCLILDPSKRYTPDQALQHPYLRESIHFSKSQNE
Chain of human (h)CLK2 (P49760 whole entry): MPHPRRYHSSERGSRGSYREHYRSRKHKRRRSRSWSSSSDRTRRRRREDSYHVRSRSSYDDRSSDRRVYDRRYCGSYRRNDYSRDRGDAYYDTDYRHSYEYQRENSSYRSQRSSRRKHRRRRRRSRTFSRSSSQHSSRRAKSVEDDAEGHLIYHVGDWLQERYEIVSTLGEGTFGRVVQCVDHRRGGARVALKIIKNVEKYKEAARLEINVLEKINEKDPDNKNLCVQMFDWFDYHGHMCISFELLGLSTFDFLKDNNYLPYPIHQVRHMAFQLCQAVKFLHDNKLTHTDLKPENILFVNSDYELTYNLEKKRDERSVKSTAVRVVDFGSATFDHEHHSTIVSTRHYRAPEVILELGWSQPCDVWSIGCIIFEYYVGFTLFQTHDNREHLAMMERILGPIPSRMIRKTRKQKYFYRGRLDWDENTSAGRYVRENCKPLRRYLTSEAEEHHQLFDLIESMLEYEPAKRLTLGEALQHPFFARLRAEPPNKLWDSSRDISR

| SMILES | IC50 (recombinant PfCLK3; IC50 (apparent), Km ATP (5 μM)) | IC50 (recombinant PfCLK3; pIC50, Km ATP (5 μM)) | CC50 at 48 h ([1]; CC50 (HepG2)) | CC50 at 48 h ([1]; pCC50 (HepG2)) | covalent adduct formation with PfCLK3 kinase domain [2] | Relative Ratio, assignment apo [2, 4] | further results |
| --- | --- | --- | --- | --- | --- | --- | --- |
| C=CS(=O)(=O)Nc1ccc(-c2c[nH]c3ncc(-c4cc(CN(CC)CC)ccc4OC)cc23)cc1 [Compound 11] | 892 nM | 891 nM |  |  |  |  | kinase activity in words (recombinant PfCLK3): poorly active, not reaching 100% inhibition at the highest concentration tested |
| C#Cc1ccc(-c2ccnc3[nH]c(-c4cc(CN(CC)CC)ccc4OC)cc23)cc1C=O [Compound 8] | 29 ± 3 nM | 28.8 nM | 12300 ± 2530 nM | 12300 nM | showed covalent adduct formation; also recorded: formed a covalent adduct with PfCLK3 |  | IC50 (human (h)CLK2; read-out: IC50 (hCLK2)): 69 ± 31 nM; doubly modified PfCLK3 kinase domain, minor mass abundance ([2]; 44 378 Da species): 20–25%; Relative Ratio, assignment holo (doubly modified) [2, 4]: 25; Relative Ratio, assignment holo (singly modified) [2, 4]: 75; EC50 [3, 5]: 2270 ± 2890 nM; EC50 [3, 6]: 2290 nM |
| C=CC(=O)Nc1ccc(-c2c[nH]c3ncc(-c4cc(CN(CC)CC)ccc4OC)cc23)cc1 [Compound 13] | 1950 nM | 2000 nM |  |  |  | 100 | kinase activity in words (recombinant PfCLK3): significantly lower activity than all other analogues |
| CCN(CC)Cc1ccc(OC)c(-c2cnc3[nH]cc(-c4ccc(S(=O)(=O)F)cc4)c3c2)c1 [Compound 3] | 302 ± 33 nM | 302 nM |  |  |  | 100 |  |
| C=CC(=O)Nc1ccc(-c2ccnc3[nH]c(-c4cc(CN(CC)CC)ccc4OC)cc23)cc1 [Compound 12] |  |  |  |  |  | 100 |  |
| CCN(CC)Cc1ccc(OC)c(-c2cc3c(-c4ccc(C=O)c(O)c4)ccnc3[nH]2)c1 [Compound 6] | 155 ± 19 nM | 155 nM |  |  | unable to covalently bind the protein | 100 |  |
| CCN(CC)Cc1ccc(OC)c(-c2cnc3[nH]cc(-c4ccc(O)c(C=O)c4)c3c2)c1 [Compound 5] | 19 ± 10 nM | 19.5 nM | 4740 ± 3180 nM | 2690 nM | showed covalent adduct formation; also recorded: formed a covalent adduct with PfCLK3 | 68 | IC50 (human (h)CLK2; read-out: pIC50 (hCLK2) (converted)): 11 nM; fold more potent against hCLK2 than parent S1 (human (h)CLK2; relative to S1): 20 fold; partial covalent bond formation, modification ([2]; imine adduct): 32–60%; Relative Ratio, assignment holo (singly modified) [2, 4]: 32; EC50 [3, 5]: 3260 ± 1670 nM; EC50 [3, 6]: 3240 nM |
| CCN(CC)Cc1ccc(OC)c(-c2cnc3[nH]cc(-c4ccc(C=O)c(O)c4)c3c2)c1 [Compound 7] | 83 ± 42 nM | 83.2 nM |  |  | unable to covalently bind the protein | 100 |  |
| CCN(CC)Cc1ccc(OC)c(-c2cc3c(-c4ccc(S(=O)(=O)F)cc4)ccnc3[nH]2)c1 [Compound 2] | 83 ± 10 nM | 83.2 nM |  |  |  | 100 |  |
| CCN(CC)Cc1ccc(OC)c(-c2cc3c(-c4ccc(C(=O)O)c(C(C)C)c4)ccnc3[nH]2)c1 [Compound 1, TCMDC-135051, reference compound] | 17 ± 3 nM | 17.4 nM | 2750 ± 580 nM | 2750 nM |  |  | IC50 (human (h)CLK2; IC50 (hCLK2)): 879 ± 325 nM; IC50 (human (h)CLK2; pIC50 (hCLK2)): 891 nM; EC50 ([3]; 3D7, 72 h, read-out: EC50 (3D7)): 266 ± 11 nM; EC50 ([3]; 3D7, 72 h, read-out: pEC50 (3D7) (converted)): 263 nM |
